# Measured values taken from patent US20240382508A1, “REGENERATIVE AGENT FOR BONE TISSUE AND LUNG TISSUE, AND PHARMACEUTICAL COMPOSITION FOR REGENERATING BONE TISSUE AND LUNG TISSUE” (NIIGATA UNIVERSITY, priority 2021, published 2024).
# Entries after “also recorded” stand apart in the source; their conditions may differ.
# How the values were obtained:
# [1] = system: iCell mesenchymal stem cells; experiment: bone nodule measurement in mesenchymal stem cells induced from human iPS cells; type: cell-based; settings: 10 μg/mL for each; 15 days; bone differentiation medium
# Method: iCell (registered trademark) mesenchymal stem cells (iCell (registered trademark) MSCs) (#01279, manufactured by Fujifilm Corporation) (1×10^4 cells/mL) obtained by inducing human mesenchymal stem cells from iPS cells, were cultured in α-MEM and a bone differentiation medium (containing 50 μg/mL ascorbic acid and 10 mM β-glycerol 2-phosphate). Ethanol (final concentration 0.1% by mass), or erythromycin, clarithromycin, or azithromycin (10 μg/mL for each) was added to the medium. The medium was exchanged every 3 days, and after 15 days, the cells were stained with Alizarin red S, followed by performing of bone nodule measurement. The results are shown in FIG. 18 (stained images) and FIG. 19 (graph showing the proportion of bone nodules). In FIG. 18 and FIG. 19, the ethanol (final concentration 0.1% by mass)-added group is a control. In FIG. 19, the symbol * indicates p≤0.05, the symbol ** indicates p≤0.01, the symbol *** indicates p≤0.001, and the symbol **** indicates p≤0.0001.
# [2] = system: experimental periodontitis model mice; experiment: bone regeneration in experimental periodontitis model mice (teeth ligated with silk threads); type: in vivo, mouse; settings: 22-month-old aging mice; 20 mg/kg intraperitoneally once; 5 days regeneration period
# Source text: Experimental periodontitis model mice in which teeth are ligated with silk threads are useful models for inflammatory bone destruction research because inflammations and bone resorption occur in about 10 days after the ligation. The above-described experimental periodontitis models were produced by using 6-week-old wild-type mice (N=8, male C57BL/6N mice, manufactured by CLEA Japan, Inc.), 22-month-old aging mice (N=4, male C57BL/6N mice, manufactured by CLEA Japan, Inc.), and 6-week-old DEL-1-deficient mice (N=8, male C57BL/6N mice (manufactured by CLEA Japan, Inc.), a method for producing the deficient mice was as described in Non Patent Document 1), the silk threads were removed 10 days after the ligation, a remission phase of inflammation of 5 days passed, and in the wild-type mice, new bone formation was recognized at the site of resorbed bone defect while no repair mechanism of the periodontal tissue by DEL-1 was recognized.
# The experimental periodontitis models described in Example 1 were produced by using 6-week-old wild-type mice (N=8, male C57BL/6N mice, manufactured by CLEA Japan, Inc.), 22-month-old aging mice (N=4, male C57BL/6N mice, manufactured by CLEA Japan, Inc.), and 6-week-old DEL-1-deficient mice (N=8, male C57BL/6N mice (manufactured by CLEA Japan, Inc.), a method for producing the deficient mice was as described in Non Patent Document 1), the silk threads were removed 10 days after the ligation to experimentally induce periodontitis, subsequently a bone regeneration period of 5 days was provided, and then the amount of regeneration of resorbed bone was measured using a stereomicroscope and image measurement software (manufactured by Nikon Corporation). Erythromycin (10 mg/kg) and ethanol (final concentration 0.1% by mass) were intraperitoneally administered once after the removal of the silk threads. In addition, DEL-1 (1 μg) and Fc control (0.84 μg) were directly inoculated into the gingiva after the removal of the silk threads. The results are shown in FIG. 3 (left: wild-type mice, right: DEL-1-deficient mice) and FIG. 4 (aging mice).
# Next, the experimental periodontitis model described in Example 1 was produced by using 22-month-old aging mice (N=4, male C57BL/6N mouse, manufactured by CLEA Japan, Inc.), the silk threads were removed 10 days after the ligation to experimentally induce periodontitis, subsequently a bone regeneration period of 5 days was provided, and the amount of regeneration of resorbed bone was measured using a stereomicroscope and image measurement software (manufactured by Nikon Corporation). Erythromycin (ERM) (20 mg/kg), azithromycin (AZM) (20 mg/kg), clarithromycin (CLM) (20 mg/kg), and ethanol (final concentration 0.1% by mass) as a control were intraperitoneally administered once after the removal of the silk threads. […] In addition, there was no difference in the amount of bone regeneration between the macrolide antimicrobial agent-administered groups.
# osteoblasts = experiment: bone nodule measurement in osteoblasts (Alizarin red S); type: cell-based, mouse; settings: osteoblasts derived from wild-type mice; 10 μg/mL each; 15 days
# Method: Next, from the cranial bones of 3-day-old wild-type mice (N=6, male C57BL/6N mice, manufactured by CLEA Japan, Inc.) and 3-day-old DEL-1-deficient mice (N=6, male C57BL/6N mice (manufactured by CLEA Japan, Inc.), a method for producing the deficient mice was as described in Non Patent Document 1), osteoblasts were isolated by allowing 0.1% by mass of type 1 collagenase and 0.2% by mass of dispase to act at 37° C. for 20 minutes, and the cells were cultured in α-MEM and a bone differentiation medium (containing 50 μg/ml ascorbic acid and 10 mM β-glycerol 2-phosphate). Ethanol (final concentration 0.1% by mass) and erythromycin (10 μg/mL) were added into the medium in which the osteoblasts (1×10^4 cells/mL) derived from the wild-type mice or the DEL-1-deficient mice were cultured. The medium was exchanged every 3 days, and after 15 days, the cells were stained with Alizarin red S, followed by performing of bone nodule measurement.
# Next, the proportion (%) of bone nodules with respect to the observation region in the above-described osteoblasts was calculated from microscopic images by using image processing software (NIH Image). In addition, RNA was extracted from each of the osteoblasts by using an RNeasy Kit (manufactured by QIAGEN NV), subsequently cDNA was synthesized by using a cDNA synthesis kit (manufactured by Thermo Fisher Scientific, Inc.), and the relative expression levels of RUNX2 mRNA, Sp7 mRNA, and Bglap mRNA, which are important for bone regeneration, were checked by an RT-PCR method (Quantstudio3, Thermo Fisher Scientific, Inc.). Regarding primers, designed primers manufactured by Thermo Fisher Scientific, Inc. were used. The Assay IDs of the primers used are shown below.
# (Bone regeneration-inducing effect 2 by various macrolide antimicrobial agents) From the cranial bones of 3-day-old wild-type mice (N=6, male C57BL/6N mice, manufactured by CLEA Japan, Inc.), osteoblasts were isolated by allowing 0.1% by mass of type 1 collagenase and 0.2% by mass of dispase to act at 37° C. for 20 minutes, and the cells were cultured in α-MEM and a bone differentiation medium (containing 50 μg/ml ascorbic acid and 10 mM β-glycerol 2-phosphate). Ethanol (final concentration 0.1% by mass), or erythromycin, clarithromycin, or azithromycin (10 μg/mL each) was added into the medium in which the osteoblasts (1×10^4 cells/mL) derived from the wild-type mice were cultured. The medium was exchanged every 3 days, and after 15 days, the cells were stained with Alizarin red S, followed by performing of bone nodule measurement. The results are shown in FIG. 11 In FIG. 11, the symbol * indicates p<0.05, and the symbol ** indicates p<0.01. In addition, the control is an ethanol (final concentration 0.1% by mass)-added group.
# [3] = system: bone defects in the jawbones; experiment: jawbone defect regeneration in cynomolgus monkeys (microCT); type: in vivo; settings: 200 μg at bone defect site, one month
# Method: Bone defects with a diameter of 2 cm and a depth of 2 cm were artificially produced in the jawbones of young (2 years old) and aged (10 years old) cynomolgus monkeys by using a round steel bar. Next, 200 μg of each of erythromycin, clarithromycin, and azithromycin were added to the bone defect sites. As controls, a non-administered group and a group administered with 200 μg of REGROTH (registered trademark), which has been approved as a bone regenerative agent, were also prepared. The amount of bone regeneration after one month from the administration of each drug was checked by using microCT. In FIG. 10, the symbol * indicates p<0.01.
# [4] = aged (10 years old) cynomolgus monkeys
# [5] = young (2 years old) cynomolgus monkeys
SMILES,"formation of bone nodules (FIG. 18, FIG. 19) [1]",bone regeneration (FIG. 9) [2],formation of bone nodules (FIG. 11) (osteoblasts),"bone regeneration effect (FIG. 10) [3, 4]","bone regeneration effect (FIG. 10) [3, 5]"
CC[C@H]1OC(=O)[C@H](C)[C@@H](O[C@H]2C[C@@](C)(OC)[C@@H](O)[C@H](C)O2)[C@H](C)[C@@H](O[C@@H]2O[C@H](C)C[C@H](N(C)C)[C@H]2O)[C@](C)(OC)C[C@@H](C)C(=O)[C@H](C)[C@@H](O)[C@]1(C)O [clarithromycin],the formation of bone nodules was recognized,bone regeneration was recognized,the formation of bone nodules was recognized,a bone regeneration effect was recognized,a bone regeneration effect was recognized
CC[C@H]1OC(=O)[C@H](C)[C@@H](O[C@H]2C[C@@](C)(OC)[C@@H](O)[C@H](C)O2)[C@H](C)[C@@H](O[C@@H]2O[C@H](C)C[C@H](N(C)C)[C@H]2O)[C@](C)(O)C[C@@H](C)CN(C)[C@H](C)[C@@H](O)[C@]1(C)O [azithromycin],the formation of bone nodules was recognized,bone regeneration was recognized,the formation of bone nodules was recognized; also recorded: particularly favorable,a bone regeneration effect was recognized,a bone regeneration effect was recognized
